The record followed here is patent US20160039802A1, “3-PYRIMIDIN-4-YL-OXAZOLIDIN-2-ONES AS INHIBITORS OF MUTANT IDH” (NOVARTIS AG, priority 2013, published 2016).

Assay [1] addresses T1, IDH1 (R132H) mutant (Homo sapiens, UniProt O75874, R132H).
T1 construct: His6 with PreScission site (N, cleaved yes); made in house; host or cells: E. coli Rosetta 2(DE3)
Kind of assay: Fluorescence biochemical assay (NADPH oxidation). Particulars: mIDH R132H 10 nM, 10 μM NADPH, 100 μM α-KG; range where run multiple times. As for the experimental part: The IDH1 (R132H) mutant catalyzes the reduced form of NADP+ (NADPH) and α-ketoglutarate (α-KG) to form nicotinamide adenine dinucleotide phosphate (NADP+) and R(−)-2-hydroxyglutarate (2HG). […] Reactions were monitored using the Perkin-Elmer Envision, Model 2101. […] The final reaction mixture contained 2.5% DMSO and test compounds with concentrations ranging 0.0000008-25 μM. The IDH1 (R132H) enzyme was used at a final concentration of 10 nM. Curve fitting for dose response […] determinations was done in the Helios module of the software package DAVID. The 4-parameter logistic model was used: y=min+((max−min)/1+(x/IC50)^shape)

Assay [2] concerns the target T2, Mutant IDH1 R132H (Homo sapiens, UniProt O75874, R132H).
T2 construct: His6 with PreScission site (N, cleaved yes); made in house; host or cells: E. coli Rosetta 2(DE3)
Kind of assay: Mutant IDH1 biochemical assay: LC-MS detection of 2-HG. Also: mIDH R132H 0.25 nM, 5 µM NADPH. Particulars: mIDH R132H […], 5 uM NADPH, 100 uM alpha-KG, 45 minutes incubation; range where run multiple times. An excerpt: Mutant IDH1 biochemical Sssay: LC-MS Detection of 2-HG.

T1 sequence (O75874 whole entry R132H): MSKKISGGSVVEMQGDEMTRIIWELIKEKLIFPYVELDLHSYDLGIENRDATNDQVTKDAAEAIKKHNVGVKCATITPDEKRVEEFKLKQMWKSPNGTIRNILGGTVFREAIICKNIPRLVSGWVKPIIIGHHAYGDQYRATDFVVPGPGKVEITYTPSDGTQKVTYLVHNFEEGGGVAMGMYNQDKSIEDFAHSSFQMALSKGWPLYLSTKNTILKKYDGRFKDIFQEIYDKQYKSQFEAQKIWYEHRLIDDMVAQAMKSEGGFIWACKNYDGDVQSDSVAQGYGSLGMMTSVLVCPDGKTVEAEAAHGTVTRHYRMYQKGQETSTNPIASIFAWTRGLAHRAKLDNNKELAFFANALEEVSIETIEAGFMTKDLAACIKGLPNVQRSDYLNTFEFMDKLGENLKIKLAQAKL
T2 sequence (O75874 whole entry R132H): as above

As a reminder, the IC50 is the concentration at which inhibition is half-maximal. Low values mean higher potency, high ones lower potency. With `C[C@H](Nc1nccc(N2C(=O)OC[C@]2(C)C2CC2)n1)c1ccc(CN2CCC(N(C)C)CC2)c(F)c1` [Example 30, (S)-4-cyclopropyl-3-(2-(((S)-1-(4-((4-(dimethylamino)piperidin-1-yl)methyl)-3-fluorophenyl)ethyl)amino)pyrimidin-4-yl)-4-methyloxazolidin-2-one], the results for the IC50 in assay [1] and in assay [2] were 122 to 172 nM and 211 to 271 nM, respectively.

On to `CC(Nc1nccc(N2C(=O)OC[C@@]2(C)C2CC2)n1)c1nc(-c2ccc(Cl)c(OC(F)(F)F)c2)no1` (single isomer, unassigned) [Example 66], for which the IC50 in assay [1] is 34.3 to 72.5 nM; in assay [2] it was 85 nM.

For `CC(Nc1nccc(N2C(=O)OC[C@@]2(C)C2CC2)n1)c1nc(-c2ccc(Cl)c(OC(F)(F)F)c2)no1` (single isomer, unassigned) [Example 65], the IC50 in assay [1] is greater than 25000 nM; in assay [2] it was greater than 5000 nM.

For the compound `Cc1cc(N2C(=O)OC[C@@H]2C2CC2)nc(N[C@@H](C)c2cc(-c3ccc(Cl)cc3)on2)n1` [Example 10, (S)-3-(2-(((S)-1-(5-(4-chlorophenyl)isoxazol-3-yl)ethyl)amino)-6-methylpyrimidin-4-yl)-4-cyclopropyloxazolidin-2-one], the figures for the IC50 in assay [1] and in assay [2] were 71.6 nM and 22.8 nM, respectively.

In the case of `Cc1cc(N2C(=O)OC[C@@H]2C2CC2)nc(N[C@@H](C)c2cnc(-c3ccc(Cl)cc3)s2)n1` [Example 9, (S)-3-(2-(((S)-1-(2-(4-chlorophenyl)thiazol-5-yl)ethyl)amino)-6-methylpyrimidin-4-yl)-4-cyclopropyloxazolidin-2-one], the IC50 in assay [1] was found to be 105 nM; in assay [2], 43.7 nM.

As to `Cc1cc(N2C(=O)OC[C@@H]2C2CC2)nc(N[C@@H](C)c2nc(-c3ccc(Cl)cc3)no2)n1` [Example 8, (S)-3-(2-(((S)-1-(3-(4-chlorophenyl)-1,2,4-oxadiazol-5-yl)ethyl)amino)-6-methylpyrimidin-4-yl)-4-cyclopropyloxazolidin-2-one], the IC50 in assay [1] was found to be 71.3 nM; in assay [2], 47.1 nM.

For the compound `C[C@H](Nc1nccc(N2C(=O)OC[C@]2(C)C2CC2)n1)c1ccc(CN2CCC(O)(C(F)(F)F)CC2)cc1F` [Example 35, (S)-4-cyclopropyl-3-(2-(((S)-1-(2-fluoro-4-((4-hydroxy-4-(trifluoromethyl)piperidin-1-yl)methyl)phenyl)ethyl)amino)pyrimidin-4-yl)-4-methyloxazolidin-2-one], the results for the IC50 in assay [1] and in assay [2] were 15.9 nM and 10.9 nM, respectively.

`C[C@H](Nc1ncc(F)c(N2C(=O)OCC2(C)C2CC2)n1)c1ccc(CN2CCC(C)(N)CC2)cc1F` (single isomer, unassigned) [Example 62]: the values for the IC50 in assay [1] and in assay [2] were 748 nM and 1620 nM, respectively.

Turning to `Cc1cc(N2C(=O)OC[C@@H]2C2CC2)nc(N[C@@H](C)c2cn(-c3ccc(Cl)cc3)cn2)n1` [Example 7, (S)-3-(2-(((S)-1-(1-(4-chlorophenyl)-1H-imidazol-4-yl)ethyl)amino)-6-methylpyrimidin-4-yl)-4-cyclopropyloxazolidin-2-one], the figures for the IC50 in assay [1] and in assay [2] were 17.4 nM and 8.45 nM, respectively.

`C[C@H](Nc1nccc(N2C(=O)OC[C@]2(C)C2CC2)n1)c1ccc(CN2CCC(N(C)C)CC2)cc1F` [Example 33, (S)-4-cyclopropyl-3-(2-(((S)-1-(4-((4-(dimethylamino)piperidin-1-yl)methyl)-2-fluorophenyl)ethyl)amino)pyrimidin-4-yl)-4-methyloxazolidin-2-one]: the half-maximal inhibitory concentration (IC50) in assay [1] was 109 to 115 nM; in assay [2], 175 nM.

For `CC(Nc1nccc(N2C(=O)OC[C@]2(C)C2CC2)n1)c1nc(-c2ccc(Cl)c(OC(F)(F)F)c2)no1` (single isomer, unassigned) [Example 64], the IC50 in assay [1] was 10.3 to 42.4 nM; in assay [2], 25.2 nM.

Regarding `Cc1cc(N2C(=O)OC[C@@H]2C2CC2)nc(N[C@@H](C)c2cn(-c3ccc(Cl)cc3)nn2)n1` [Example 11, (S)-3-(2-(((S)-1-(1-(4-chlorophenyl)-1H-1,2,3-triazol-4-yl)ethyl)amino)-6-methylpyrimidin-4-yl)-4-cyclopropyloxazolidin-2-one], the results for the IC50 in assay [1] and in assay [2] were 35.9 nM and 76.7 nM, respectively.

Turning to `C[C@H](Nc1nccc(N2C(=O)OCC2(C)C2CC2)n1)c1ccc(F)cc1` (single isomer, unassigned) [Example 45], the IC50 in assay [1] is 235 to 253 nM; in assay [2], 189 nM.
